In patent US7622480B2, “Azaindolylpiperidine derivatives as antihistaminic and antiallergic agents” (Laboratorios Almirall S.A., priority 2002, dated 2009):

Experiments:
[1] = system: Histamine-induced skin vascular permeability in rats; assay: Histamine-induced skin vascular permeability in rats; format: in vivo; conditions: Rattus norvegicus, 4 h; Male Wistar rats, oral, dose of 3 mg/Kg, four hours after administration, compared with vehicle treated group
Procedure: Either one, four, eight or 24 hours later the rats were lightly anaesthetized with ether and a cutaneous reaction was induced by two intradermal injections of 50 μl of histamine (100 μg/ml) onto the back, followed by a intravenous injection of 3 ml/kg of Evan's Blue (5 mg/ml), both dissolved in saline. Sixty minutes later, the rats were killed by cervical dislocation and the back skin dissected free. The diameter (in millimetres) of the papule was measured in two directions and the area was calculated.

histamine H1 receptor = target: T1, histamine H1 receptor (Cavia porcellus, UniProt P31389); assay: Histamine-H1 receptor binding assay; conditions: guinea pig cerebellum membranes, 0.7 nM [3H]-mepyramine, 30 min at 30° C.
T1 construct: performed in guinea pig cerebellum membranes as described previously; from tissue; host or cells: guinea pig cerebellum membranes
T1 sequence (P31389 whole entry): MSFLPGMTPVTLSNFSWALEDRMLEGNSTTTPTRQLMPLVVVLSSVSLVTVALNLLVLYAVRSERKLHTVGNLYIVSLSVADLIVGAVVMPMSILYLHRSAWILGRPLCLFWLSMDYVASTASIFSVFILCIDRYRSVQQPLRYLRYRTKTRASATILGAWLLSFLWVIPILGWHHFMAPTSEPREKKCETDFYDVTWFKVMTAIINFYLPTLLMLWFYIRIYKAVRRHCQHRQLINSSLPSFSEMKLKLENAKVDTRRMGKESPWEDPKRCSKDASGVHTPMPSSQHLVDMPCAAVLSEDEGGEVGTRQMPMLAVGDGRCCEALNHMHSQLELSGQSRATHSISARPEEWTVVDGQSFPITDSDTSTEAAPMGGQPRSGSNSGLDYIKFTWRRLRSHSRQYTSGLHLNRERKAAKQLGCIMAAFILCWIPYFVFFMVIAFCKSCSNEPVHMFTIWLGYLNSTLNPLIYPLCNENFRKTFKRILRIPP
Procedure: (1) In vitro histamine H1 receptor binding assay, to measure the affinity of the compounds. […] Briefly, the membrane suspensions (160 μg/ml) were incubated at 30° C. with 0.7 nM [^3H]-mepyramine and different concentrations of the test compounds in a final volume of 250 μl. Binding reactions were terminated by filtration after 30 min of incubation and the bound radioactivity was determined. The non-specific binding was measured in the presence of 10 μM of promethazine. The affinity of each test compound to the receptor was determined by using at least six different concentrations run in duplicate. IC50 values were obtained by non-linear regression by use of SAS on a DEC AXP computer.

| Compound | inhibition in vivo at 3 mg/kg [1] | IC50 (histamine H1 receptor) |
| --- | --- | --- |
| O=C(O)c1cccc(CN2CCC(c3cn(Cc4ccoc4)c4ncccc34)CC2)c1 [Example 2, 3-[4-(1-furan-3-ylmethyl-1H-pyrrolo[2,3-b]pyridin-3-yl)piperidin-1-ylmethyl]benzoic acid] | > 50% | 560 nM |
| CCOCCn1cc(C2CCN(CCOc3cc(Cl)ccc3C(=O)O)CC2)c2ccncc21 [Example 73, 4-chloro-2-(2-{4-[1-(2-ethoxyethyl)-1H-pyrrolo[2,3-c]pyridin-3-yl]-piperidin-1-yl}-ethoxy)-benzoic acid] | – | 111 nM |
| COc1ccc(CN2CCC(c3cn(Cc4ccoc4)c4ncccc34)CC2)cc1C(=O)O [Example 7, 5-[4-(1-furan-3-ylmethyl-1H-pyrrolo[2,3-b]pyridin-3-yl)-piperidin-1-ylmethyl]-2-methoxybenzoic acid] | > 50% | 205 nM |
| O=C(O)c1ccccc1OCCN1CCC(c2cn(Cc3ccc(Cl)s3)c3ncccc23)CC1 [Example 17, 2-(2-{4-[1-(5-chlorothiophen-2-ylmethyl)-1H-pyrrolo[2,3-b]pyridin-3-yl]-piperidin-1-yl}-ethoxy)-benzoic acid] | – | 265 nM |
| COCCn1cc(C2CCN(Cc3cccc(C(=O)O)c3)CC2)c2cccnc21 [Example 1, 3-{4-[1-(2-methoxyethyl)-1H-pyrrolo[2,3-b]pyridin-3-yl]piperidin-1-ylmethyl}benzoic acid] | > 50% | 240 nM |
| O=C(O)c1cc(CN2CCC(c3cn(Cc4ccoc4)c4ncccc34)CC2)ccc1F [Example 45, 2-fluoro-5-[4-(1-furan-3-ylmethyl-1H-pyrrolo[2,3-b]pyridin-3-yl)-piperidin-1-ylmethyl]-benzoic acid] | – | 255 nM |
| O=C(O)c1ccccc1OCCN1CCC(c2cn(Cc3ccoc3)c3ncccc23)CC1 [Example 3, 2-{2-[4-(1-furan-3-ylmethyl-1H-pyrrolo[2,3-b]pyridin-3-yl)piperidine-1-yl]ethoxy}benzoic acid] | > 50% | 225 nM |
| COCCn1cc(C2CCN(CCOc3cccc(OC)c3C(=O)O)CC2)c2cccnc21 [Example 23, 2-methoxy-6-(2-{4-[1-(2-methoxyethyl)-1H-pyrrolo[2,3-b]pyridin-3-yl]-piperidin-1-yl}-ethoxy)benzoic acid] | – | 275 nM |
| COc1ccc(C(=O)O)c(OCCN2CCC(c3cn(Cc4ccoc4)c4cnccc34)CC2)c1 [Example 76, 2-{2-[4-(1-furan-3-ylmethyl-1H-pyrrolo[2,3-c]pyridin-3-yl)-piperidin-1-yl]-ethoxy}-4-methoxybenzoic acid] | – | 675 nM |
| COc1ccc(C(=O)O)c(OCCN2CCC(c3cn(Cc4ccoc4)c4ncccc34)CC2)c1 [Example 43, 2-{2-[4-(1-furan-3-ylmethyl-1H-pyrrolo[2,3-b]pyridin-3-yl)piperidin-1-yl]-ethoxy}-4-methoxybenzoic acid] | – | 120 nM |
| O=C(O)c1ccccc1OCCN1CCC(c2cn(Cc3ccsc3)c3ncccc23)CC1 [Example 14, 2-{2-[4-(1-thiophen-3-ylmethyl-1H-pyrrolo[2,3-b]pyridin-3-yl)-piperidin-1-yl]-ethoxy}-benzoic acid] | – | 510 nM |
| CCOCCn1cc(C2CCN(CCOc3c(OC)cccc3C(=O)O)CC2)c2cccnc21 [Example 37, 2-(2-{4-[1-(2-ethoxyethyl)-1H-pyrrolo[2,3-b]pyridin-3-yl]-piperidin-1-yl}-ethoxy)-3-methoxybenzoic acid] | – | 155 nM |
| O=C(O)c1ccccc1OCCN1CCC(c2cn(Cc3ccco3)c3ncccc23)CC1 [Example 8, 2-{2-[4-(1-furan-2-ylmethyl-1H-pyrrolo[2,3-b]pyridin-3-yl)-piperidin-1-yl]-ethoxy}-benzoic acid] | > 50% | 405 nM |
| COc1ccc(CN2CCC(c3cn(Cc4ccc(Cl)s4)c4ncccc34)CC2)cc1C(=O)O [Example 19, 5-{4-[1-(5-chlorothiophen-2-ylmethyl)-1H-pyrrolo[2,3-b]pyridin-3-yl]-piperidin-1-ylmethyl}2-methoxybenzoic acid] | > 50% | 500 nM |
| COc1cccc(C(=O)O)c1OCCN1CCC(c2cn(Cc3ccc(Cl)s3)c3ncccc23)CC1 [Example 54, 2-(2-{4-[1-(5-chlorothiophen-2-ylmethyl)-1H-pyrrolo[2,3-b]pyridin-3-yl]-piperidin-1-yl}-ethoxy)-3-methoxybenzoic acid] | – | 695 nM |
| CCOCCn1cc(C2CCN(Cc3cccc(C(=O)O)c3)CC2)c2cccnc21 [Example 4, 3-{4-[1-(2-ethoxyethyl)-1H-pyrrolo[2,3-b]pyridin-3-yl]piperidin-1-ylmethyl}benzoic acid] | > 50% | 403 nM |
| CCCCn1cc(C2CCN(Cc3cccc(C(=O)O)c3)CC2)c2cccnc21 [Example 26, 3-[4-(1-butyl-1H-pyrrolo[2,3-b]pyridin-3-yl)piperidin-1-ylmethyl]-benzoic acid] | – | 275 nM |

| Compound | inhibition in vivo at 3 mg/kg [1] | IC50 (histamine H1 receptor) |
| --- | --- | --- |
| CCCCn1cc(C2CCN(Cc3ccc(OC)c(C(=O)O)c3)CC2)c2cccnc21 [Example 24, 5-[4-(1-butyl-1H-pyrrolo[2,3-b]pyridin-3-yl)piperidin-1-ylmethyl]-2-methoxybenzoic acid] | > 50% | 475 nM |
| CCCCn1cc(C2CCN(Cc3ccc(F)c(C(=O)O)c3)CC2)c2cccnc21 [Example 64, 5-[4-(1-butyl-1H-pyrrolo[2,3-b]pyridin-3-yl)-piperidin-1-ylmethyl]-2-fluorobenzoic acid] | – | 380 nM |
| CCCCn1cc(C2CCN(CCOc3ccccc3C(=O)O)CC2)c2cccnc21 [Example 25, 2-{2-[4-(1-butyl-1H-pyrrolo[2,3-b]pyridin-3-yl)piperidin-1-yl]-ethoxy}-benzoic acid] | > 50% | 235 nM |
| O=C(O)c1cccc(CN2CCC(c3cn(Cc4ccco4)c4ncccc34)CC2)c1 [Example 9, 3-[4-(1-furan-2-ylmethyl-1H-pyrrolo[2,3-b]pyridin-3-yl)piperidin-1-ylmethyl]-benzoic acid] | > 50% | 150 nM |
| O=C(O)c1ccccc1OCCN1CCC(c2cn(Cc3cccs3)c3ncccc23)CC1 [Example 11, 2-{2-[4-(1-thiophen-2-ylmethyl-1H-pyrrolo[2,3-b]pyridin-3-yl)-piperidin-1-yl]-ethoxy}benzoic acid] | – | 505 nM |
| O=C(O)c1cccc(CN2CCC(c3cn(Cc4ccc(Cl)s4)c4ncccc34)CC2)c1 [Example 18, 3-{4-[1-(5-chlorothiophen-2-ylmethyl)-1H-pyrrolo[2,3-b]pyridin-3-yl]-piperidin-1-ylmethyl}-benzoic acid] | – | 315 nM |
| O=C(O)c1ccc(Cl)cc1OCCN1CCC(c2cn(Cc3ccc(Cl)s3)c3cnccc23)CC1 [Example 92, 4-chloro-2-(2-{4-[1-(5-chlorothiophen-2-ylmethyl)-1H-pyrrolo[2,3-c]pyridin-3-yl]-piperidin-1-yl}-ethoxy)-benzoic acid] | – | 105 nM |
| CCCCn1cc(C2CCN(CCOc3cc(Cl)ccc3C(=O)O)CC2)c2cccnc21 [Example 63, 2-{2-[4-(1-butyl-1H-pyrrolo[2,3-b]pyridin-3-yl)-piperidin-1-yl]-ethoxy}-4-chlorobenzoic acid] | – | 110 nM |
| COc1ccc(CN2CCC(c3cn(Cc4ccco4)c4cnccc34)CC2)cc1C(=O)O [Example 96, 5-[4-(1-furan-2-ylmethyl-1H-pyrrolo[2,3-c]pyridin-3-yl)-piperidin-1-ylmethyl]-2-methoxybenzoic acid] | – | 805 nM |
| CCOCCn1cc(C2CCN(Cc3ccc(OC)c(C(=O)O)c3)CC2)c2cccnc21 [Example 5] | > 50% | 695 nM |
| O=C(O)c1cccc(CN2CCC(c3cn(CC4CC4)c4ncccc34)CC2)c1 [Example 28, 3-[4-(1-cyclopropylmethyl-1H-pyrrolo[2,3-b]pyridin-3-yl)-piperidin-1-ylmethyl]-benzoic acid] | – | 520 nM |
| CCOCCn1cc(C2CCN(CCOc3ccccc3C(=O)O)CC2)c2cccnc21 [Example 6] | > 50% | 190 nM |
| COc1ccc(C(=O)O)c(OCCN2CCC(c3cn(Cc4ccco4)c4ncccc34)CC2)c1 [Example 50, 2-{2-[4-(1-furan-2-ylmethyl-1H-pyrrolo[2,3-b]pyridin-3-yl)-piperidin-1-yl]-ethoxy}-4-methoxybenzoic acid] | – | 48 nM |
| CCCCn1cc(C2CCN(CCOc3cc(Cl)ccc3C(=O)O)CC2)c2ccncc21 [Example 84, 2-{2-[4-(1-butyl-1H-pyrrolo[2,3-c]pyridin-3-yl)piperidin-1-yl]-ethoxy}-4-chlorobenzoic acid] | – | 74 nM |
| COCCn1cc(C2CCN(Cc3c(OC)ccc(C(=O)O)c3OC)CC2)c2cccnc21 [Example 22, 2,4-dimethoxy-3-{4-[1-(2-methoxyethyl)-1H-pyrrolo[2,3-b]pyridin-3-yl]-piperidin-1-ylmethyl}-benzoic acid] | – | 235 nM |
| CCCCn1cc(C2CCN(CCOc3ccccc3C(=O)O)CC2)c2ccncc21 [Example 81, 2-{2-[4-(1-butyl-1H-pyrrolo[2,3-c]pyridin-3-yl)-piperidin-1-yl]-ethoxy}-benzoic acid] | – | 220 nM |
